{"source": "patent US6160166A", "about": "“Phosphonated agents and their antiangiogenic and antitumorigenic use” (priority 1999, dated 2000)", "key": {"[1]": {"tested_on": "human cerebral meningioma cells", "settings": "Schrell et al., 1995; cited from earlier work"}, "[2]": {"tested_on": "human microvascular endothelial cells (HMEC-1, HMVEC-d)", "experiment": "3H-Leucine incorporation, inhibition of protein synthesis", "format": "cell-based", "settings": "time course", "method": "For each time period, six replicate flasks are set up. The volume of the medium MCDB-131 is 10 ml per flask. After incubation, the medium was replaced with fresh MCDB-131 containing […] of ^3 H-leucine and incubated for a further 90 min. TritonX-100 (240 μl, 10%) were then added to the contents of each flask and agitated. Trichloroacetic acid (TCA) (4 ml, 20%) is added, the contents mixed and the flasks left overnight at room temperature. After 24 hr, the flask contents was suspended by shaking, transferred to tubes and centrifuged at 4300 g. The pellets were resuspended in 10% TCA and recentrifuged and then resuspended in 3.0 ml of 0.1 M NaOH. Half of this volume was transferred to scintillation vials in 10 ml of Emulsifier Safe scintillation fluid (Packard) while the remaining 1.5 ml was used to assay DNA content (LaBarca and Paigen, 1980). The radioactive counts due to protein synthesized in the presence of ^3 H-leucine was normalized to counts/μg DNA. Protein synthesis by cells treated with the phosphonic acid agents are expressed relative to that of control cells as the percent of inhibition for each time of incubation.\nAfter this period of time, the rate steadily declines."}, "[3]": {"tested_on": "fetal bovine aortic endothelial cells", "settings": "Takano et al., 1994; cited from earlier work"}, "DNA synthesis": {"tested_on": "DNA synthesis", "settings": "Jindal et al. (1990); cited from earlier work"}, "[4]": {"tested_on": "different cancer cell lines", "experiment": "MTT cell proliferation, different cancer cell lines", "format": "cell-based, human", "settings": "cancer cell lines in vitro"}, "[5]": {"tested_on": "microvascular endothelial cell migration", "experiment": "Endothelial cell migration in vitro", "format": "cell-based"}, "[6]": {"tested_on": "angiogenesis in mouse (Matrigel plus bFGF and heparin)", "settings": "Pesenti et al. (1992); cited from earlier work"}, "[7]": {"tested_on": "chick chorioallantoic membrane (CAM)", "experiment": "Chick egg chorioallantoic membrane (CAM) assay, 6-day, growing vessels: inhibition of angiogenesis", "format": "in vivo", "from_the_text": "The purpose of this experiment was to test the ability of the phosphonic acid agents described above to inhibit angiogenesis. […]\n(§1) Comparison of the inhibition of angiogenesis by 70 nmol of\n(§2) suramin or a equimolar amount of a phosphonic acid agents in the\n(§3) 6-day and 11-day chick egg chorioallantoic (CAM) assay."}, "[8]": {"target": "cyclic AMP-dependent protein kinase", "settings": "Mahoney et al., 1990; cited from earlier work"}, "p34cdc2 kinase [9]": {"tested_on": "p34cdc2 kinase", "settings": "literature; extracts from human small cell lung cancer cells; cited from earlier work"}, "[10]": {"tested_on": "porcine pulmonary artery macrovascular endothelial cell", "experiment": "Porcine pulmonary artery macrovascular endothelial cell growth, total protein and total DNA", "format": "cell-based"}, "urokinase receptor": {"tested_on": "urokinase receptor", "settings": "cited from earlier work"}, "[11]": {"tested_on": "human microvascular endothelial cells", "experiment": "Sensitivity of microvascular versus large vessel endothelium to inhibition", "format": "cell-based"}, "p34cdc2 kinase [12]": {"tested_on": "p34cdc2 kinase", "experiment": "p34cdc2 kinase activity and tyrosine phosphorylation", "format": "biochemical, human", "method": "The effects of selected phosphonic acid agents on the p34cdc2-related kinase activity are carried out essentially as described by Bojanowski et al. (1994).\nCytoplasmic and nuclear extractions: 100 million cells (HMVEC-1 or HMEC-d) are washed twice with cold PBS and incubated in hypotonic phosphate buffer for 45 min on ice. The cells are then disrupted with a Dounce homogenizer and nuclei separated from the cytoplasmic fraction by centrifugation and extensive washing with hypotonic buffer. The nuclei are incubated for 30 min in the presence of 350 mM NaCl and the nonsoluble nuclear material removed by ultracentrifugation (20 min at 40000 rpm in TL 100 Beckman ultracentrifuge). The protein concentration are adjusted to 1.5 mg/ml, 20% of glycerol are added and the extracts stored at -20° C. […]\nReactions are stopped by placing the samples on ice and spotting 5 μl of the reaction mixture onto P81 phosphocellulose filters (Whatman). Filters are washed three times in 50 mM phosphoric acid, dried and the radioactivity retained on the filters are determined by liquid scintillation (Beckman).\nWestern blot: the precipitates are electrophoresed in 12.5% 12×12 cm ready-made polyacrylamide gels (Daichi Co.) and the proteins transferred to Immobilon PVDF membranes (Millipore). […] A Pharmacia LKB image master DTS chromoscan are used for band quantification (Bojanowski et al., 1994)."}, "[13]": {"tested_on": "chick chorioallantoic membrane (CAM)", "experiment": "Chick egg chorioallantoic membrane (CAM) assay, 11-day, established vessels", "format": "in vivo", "method": "According to Ausprunk et al. (1974), capillary angiogenesis in the CAM is completed by day 11. Measurements of intercapillary distances are also consistent with the cessation of capillary growth after day 10. […] The implants were prepared as previously described by Gagliardi et al. (1992), implanted on day 11 and read on day 13.\nas §1, §2, §3"}, "Toxicity in vivo in mice": {"experiment": "Toxicity in vivo in mice", "set-up": "species or system mouse", "method": "Mice were injected intraperitoneally with 0-150 μM/kg body weight of the compounds to be tested, every other day for a total of five injections. The animals were carefully observed daily and weighed every third day for 28 days after the last injection. After the 28-day observation period, the animals were euthanized, blood was collected through cardiac puncture and the following tissues were subjected to histological investigation: heart, lungs, liver, spleen, adrenal gland, kidney, sciatic nerve, soleus muscle and brain.\nIt is clear from studies so far that compounds with equipotent or greater antitumor activity but with substantially lower toxicity are of considerable potential therapeutic value as an antitumorigenic or antiangiogenic agent. […] The animals were carefully observed daily and weighed every third day for 28 days after the last injection. After the 28-day observation period, the animals were euthanized, blood was collected through cardiac puncture and the following tissues were kept for histological investigation: heart, lungs, liver, spleen, adrenal gland, kidney, sciatic nerve, soleus muscle and brain."}}, "note": "“Also recorded” adds a separate entry of the source."}
{"smiles": "Cc1ccc(C(=O)Nc2ccc(S(=O)(=O)O)c3cc(S(=O)(=O)O)cc(S(=O)(=O)O)c23)cc1NC(=O)c1cccc(NC(=O)Nc2cccc(C(=O)Nc3cc(C(=O)Nc4ccc(S(=O)(=O)O)c5cc(S(=O)(=O)O)cc(S(=O)(=O)O)c45)ccc3C)c2)c1", "note": "[suramin]", "values": [{"measurement": "effect on proliferation and cell cycle", "setting": "[1]", "value": "inhibited proliferation of human cerebral meningioma cells and increased the percentage of cells in the S and G2/M phase of the cell cycle; also recorded: inhibited meningioma cell proliferation in five different tumor lines by arresting cells in G2-M and S phases of the cell cycle"}, {"measurement": "effect on protein synthesis", "setting": "[2]", "value": "no change in the rate of protein synthesis until suramin and the cells have been incubated together for at least 24 hr"}, {"measurement": "concentration inhibiting plasminogen activator activity induced by bFGF", "setting": "[3]", "value": "higher than 250 μg/ml"}, {"measurement": "effect on DNA synthesis", "setting": "DNA synthesis", "value": "inhibitory action of suramin on DNA synthesis"}, {"measurement": "antiproliferative activity, in words", "setting": "[4]", "value": "inhibited cell proliferation in a dose-related manner"}, {"measurement": "minimal effective concentration", "setting": "[5]; Endothelial cell, read-out: concentration inhibiting endothelial cell migration", "value": "> 150", "unit": "µg/mL"}, {"measurement": "inhibition of migration, in words", "setting": "[5]; number of cells migrated and distance traveled", "value": "significantly inhibited endothelial cell migration"}, {"measurement": "inhibition of angiogenesis in vivo, in words", "setting": "[6]", "value": "effective inhibitor of angiogenesis in vivo"}, {"measurement": "6-day CAM % Inhibition of angiogenesis", "setting": "[7]; 70 nmol or equimolar amount, 6-day CAM", "value": 64, "unit": "%"}, {"measurement": "inhibition of angiogenesis in the 6-day CAM, in words", "setting": "[7]; 6-day CAM, rapidly growing vessels", "value": "showed antiangiogenic activity; also recorded: clearly affected both the growing and established vascular cells"}, {"measurement": "ID50, dose that produces 50% inhibition of angiogenesis", "setting": "[7]; CAM assay", "value": 75, "unit": "nmol"}, {"measurement": "IC50", "setting": "[8]", "value": 656, "unit": "µM"}, {"measurement": "effect on purified cdc2 kinase / tyrosine phosphorylation", "setting": "p34cdc2 kinase [9]", "value": "direct inhibitory effect on purified cdc2 kinase and also modulates the tyrosine phosphorylation of cdc2 kinase"}, {"measurement": "effect on total protein and total DNA", "setting": "[10]; suramin higher than 250 μg/ml", "value": "significant dose-related reduction in total protein and total DNA"}, {"measurement": "effect on porcine pulmonary artery macrovascular endothelial cell growth", "setting": "[10]; up to 100 μg/ml", "value": "did not have any significant inhibitory effect"}, {"measurement": "inhibition of urokinase receptor mediated plasminogen activation", "setting": "urokinase receptor", "value": "specific inhibition of the activity of the urokinase receptor mediated cell surface plasminogen activation system"}, {"measurement": "sensitivity of microvascular versus large vessel endothelium", "setting": "[11]", "value": "much more sensitive to inhibition"}, {"measurement": "time to plateau of cell incorporation", "setting": "HMEC-1 cells", "value": "around 24 hr"}, {"measurement": "inhibition of p34cdc2 kinase", "setting": "p34cdc2 kinase [12]", "value": "inhibits p34cdc2 kinase activity in a dose-related manner"}, {"measurement": "p34cdc2 kinase tyrosine phosphorylation / mobility", "setting": "p34cdc2 kinase [12]; Western blot, anti-phosphotyrosine immunoblot", "value": "a difference in p34cdc2 kinase tyrosine phosphorylation"}, {"measurement": "11-day CAM % Inhibition", "setting": "[13]; 70 nmol or equimolar amount", "value": 50, "unit": "%"}, {"measurement": "inhibitory activity in the 11-day CAM, in words", "setting": "[13]; established vessels", "value": "showed antiangiogenic activity; also recorded: clearly affected both the growing and established vascular cells"}, {"measurement": "reduction in body weight", "setting": "Toxicity in vivo in mice; 150, 75 and 35 μM/kg body weight, injection period", "value": "10-15%"}, {"measurement": "histological findings", "setting": "Toxicity in vivo in mice; after 28-day observation, suramin or equimolar doses", "value": "dose-related frequency of lipoid degeneration of the zona reticularis of the adrenal gland and vacuolar changes in the proximal convoluted tubules of the renal tubular epithelium"}, {"measurement": "mortality", "setting": "Toxicity in vivo in mice; i.p., every other day, five injections, suramin 150 μM/kg, agents up to 150 μM/kg", "value": "died before completion of the five injections"}, {"measurement": "body weight, in words", "setting": "Toxicity in vivo in mice; i.p., five injections, 28 days observation", "value": "body weight stabilized but did not return to normal"}]}
